Here are results for 1 compound from paper PMC9469208 (Journal of Medicinal Chemistry, 2022).

Where “and” joins values, the source holds several entries; their conditions need not be identical. Identical values can stand only once. Like-named read-outs stand apart in the source and are kept apart here.

One series addresses T1, recombinant human CYP2D6 (Homo sapiens, UniProt P10635).
T1 construct: purchased Cerep (Eurofins), Poitiers, France; Promega P450-Glo; in-house COS-7 uptake assays
Kind of series: CYP2D6 P450-Glo assay. It is filed as in vitro ADME. The settings on record: only at the highest concentration of 25 μM. An excerpt:
The luminescent CYP3A4 P450-Glo and CYP2D6 P450-Glo assays and protocols were provided by Promega (Madison, WI).[98] The procedures were provided by the manufacturer and were similar as previously reported for the racemate I.[29]

The target in another series is T2, recombinant human CYP2C9 (Homo sapiens, UniProt P11712).
T2 construct: purchased Cerep (Eurofins), Poitiers, France; Promega P450-Glo; in-house COS-7 uptake assays
The series is described as follows: CYP2C9 activity assay. It counts as in vitro ADME. The note with it: comparable to the racemate.

In another series the target is T3, Alpha 1A (h) (Homo sapiens, UniProt P35348).
T3 construct: purchased Cerep (Eurofins), Poitiers, France; Promega P450-Glo; in-house COS-7 uptake assays
Kind of series: Alpha 1A (h) functional assay. It is filed as cell-based. The text has this:
(§1) The general information is listed in the Supporting Information.

The next series deals with T4, CB1 (h) (Homo sapiens, UniProt P21554).
T4 construct: purchased Cerep (Eurofins), Poitiers, France; Promega P450-Glo; in-house COS-7 uptake assays
The series is described as follows: CB1 (h) functional assay. It counts as cell-based.
Description: as §1

Another series deals with T5, D2L (h) (Homo sapiens, UniProt P14416).
T5 construct: purchased Cerep (Eurofins), Poitiers, France; Promega P450-Glo; in-house COS-7 uptake assays
Kind of series: D2L (h) functional assay. It counts as cell-based.
Description: as §1

Another series has as its target T6, sst2 (h) (Homo sapiens, UniProt P30874).
T6 construct: purchased Cerep (Eurofins), Poitiers, France; Promega P450-Glo; in-house COS-7 uptake assays
The series is described as follows: sst2 (h) functional assay. It is filed as cell-based.
Description: as §1

A further series has as its target hCav3.2 (Homo sapiens, UniProt O95180). The series is described as follows: cell-based.
Where [1] appears, read: 100 μM, listed as (R)-7 [(R)-AS-1].

T3 sequence (P35348 whole entry): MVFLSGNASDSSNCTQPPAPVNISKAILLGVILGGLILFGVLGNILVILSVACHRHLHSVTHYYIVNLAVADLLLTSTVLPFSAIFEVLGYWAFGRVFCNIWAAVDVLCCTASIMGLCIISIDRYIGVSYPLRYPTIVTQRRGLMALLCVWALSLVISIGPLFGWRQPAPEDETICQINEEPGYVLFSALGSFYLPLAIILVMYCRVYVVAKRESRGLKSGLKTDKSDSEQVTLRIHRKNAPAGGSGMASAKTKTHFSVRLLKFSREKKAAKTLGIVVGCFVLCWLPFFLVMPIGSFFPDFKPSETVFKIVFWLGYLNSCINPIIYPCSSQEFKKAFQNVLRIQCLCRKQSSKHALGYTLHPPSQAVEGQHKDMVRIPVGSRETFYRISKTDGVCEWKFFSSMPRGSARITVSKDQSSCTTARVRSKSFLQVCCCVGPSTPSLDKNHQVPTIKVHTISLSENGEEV
T4 sequence (P21554 whole entry): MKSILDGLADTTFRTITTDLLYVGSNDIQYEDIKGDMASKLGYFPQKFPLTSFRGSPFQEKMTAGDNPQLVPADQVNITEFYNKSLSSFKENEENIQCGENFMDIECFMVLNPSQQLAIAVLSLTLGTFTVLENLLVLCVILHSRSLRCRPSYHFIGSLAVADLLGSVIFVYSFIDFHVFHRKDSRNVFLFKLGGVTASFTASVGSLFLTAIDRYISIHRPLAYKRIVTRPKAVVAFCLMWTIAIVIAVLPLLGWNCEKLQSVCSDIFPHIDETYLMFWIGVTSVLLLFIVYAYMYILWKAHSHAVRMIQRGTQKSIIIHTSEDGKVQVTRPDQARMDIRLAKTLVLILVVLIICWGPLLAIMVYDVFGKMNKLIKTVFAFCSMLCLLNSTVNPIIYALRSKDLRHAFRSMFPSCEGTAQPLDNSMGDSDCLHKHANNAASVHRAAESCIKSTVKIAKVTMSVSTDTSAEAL
T5 sequence (P14416 whole entry): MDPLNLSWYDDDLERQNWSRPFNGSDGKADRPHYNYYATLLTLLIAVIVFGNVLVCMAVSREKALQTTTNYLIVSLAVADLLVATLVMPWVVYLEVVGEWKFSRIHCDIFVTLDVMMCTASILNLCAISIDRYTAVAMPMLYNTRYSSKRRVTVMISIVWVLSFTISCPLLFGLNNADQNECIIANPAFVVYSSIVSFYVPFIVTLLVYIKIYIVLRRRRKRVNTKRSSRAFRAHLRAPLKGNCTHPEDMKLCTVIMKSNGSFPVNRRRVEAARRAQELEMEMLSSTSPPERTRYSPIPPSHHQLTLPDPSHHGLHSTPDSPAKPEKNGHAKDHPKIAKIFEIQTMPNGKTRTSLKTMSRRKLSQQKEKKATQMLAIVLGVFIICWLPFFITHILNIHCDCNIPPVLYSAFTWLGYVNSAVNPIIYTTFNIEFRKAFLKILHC
T6 sequence (P30874 whole entry): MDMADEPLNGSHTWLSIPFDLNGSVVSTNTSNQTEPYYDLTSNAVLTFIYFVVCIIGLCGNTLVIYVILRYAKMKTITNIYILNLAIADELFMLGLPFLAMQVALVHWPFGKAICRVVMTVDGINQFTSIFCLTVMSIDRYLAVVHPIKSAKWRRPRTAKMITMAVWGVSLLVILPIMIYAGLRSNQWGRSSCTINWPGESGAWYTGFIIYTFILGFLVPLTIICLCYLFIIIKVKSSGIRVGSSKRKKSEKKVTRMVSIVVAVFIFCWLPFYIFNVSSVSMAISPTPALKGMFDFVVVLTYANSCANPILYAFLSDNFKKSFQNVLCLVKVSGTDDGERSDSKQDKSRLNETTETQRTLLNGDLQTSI
Sequence of hCav3.2 (O95180 whole entry): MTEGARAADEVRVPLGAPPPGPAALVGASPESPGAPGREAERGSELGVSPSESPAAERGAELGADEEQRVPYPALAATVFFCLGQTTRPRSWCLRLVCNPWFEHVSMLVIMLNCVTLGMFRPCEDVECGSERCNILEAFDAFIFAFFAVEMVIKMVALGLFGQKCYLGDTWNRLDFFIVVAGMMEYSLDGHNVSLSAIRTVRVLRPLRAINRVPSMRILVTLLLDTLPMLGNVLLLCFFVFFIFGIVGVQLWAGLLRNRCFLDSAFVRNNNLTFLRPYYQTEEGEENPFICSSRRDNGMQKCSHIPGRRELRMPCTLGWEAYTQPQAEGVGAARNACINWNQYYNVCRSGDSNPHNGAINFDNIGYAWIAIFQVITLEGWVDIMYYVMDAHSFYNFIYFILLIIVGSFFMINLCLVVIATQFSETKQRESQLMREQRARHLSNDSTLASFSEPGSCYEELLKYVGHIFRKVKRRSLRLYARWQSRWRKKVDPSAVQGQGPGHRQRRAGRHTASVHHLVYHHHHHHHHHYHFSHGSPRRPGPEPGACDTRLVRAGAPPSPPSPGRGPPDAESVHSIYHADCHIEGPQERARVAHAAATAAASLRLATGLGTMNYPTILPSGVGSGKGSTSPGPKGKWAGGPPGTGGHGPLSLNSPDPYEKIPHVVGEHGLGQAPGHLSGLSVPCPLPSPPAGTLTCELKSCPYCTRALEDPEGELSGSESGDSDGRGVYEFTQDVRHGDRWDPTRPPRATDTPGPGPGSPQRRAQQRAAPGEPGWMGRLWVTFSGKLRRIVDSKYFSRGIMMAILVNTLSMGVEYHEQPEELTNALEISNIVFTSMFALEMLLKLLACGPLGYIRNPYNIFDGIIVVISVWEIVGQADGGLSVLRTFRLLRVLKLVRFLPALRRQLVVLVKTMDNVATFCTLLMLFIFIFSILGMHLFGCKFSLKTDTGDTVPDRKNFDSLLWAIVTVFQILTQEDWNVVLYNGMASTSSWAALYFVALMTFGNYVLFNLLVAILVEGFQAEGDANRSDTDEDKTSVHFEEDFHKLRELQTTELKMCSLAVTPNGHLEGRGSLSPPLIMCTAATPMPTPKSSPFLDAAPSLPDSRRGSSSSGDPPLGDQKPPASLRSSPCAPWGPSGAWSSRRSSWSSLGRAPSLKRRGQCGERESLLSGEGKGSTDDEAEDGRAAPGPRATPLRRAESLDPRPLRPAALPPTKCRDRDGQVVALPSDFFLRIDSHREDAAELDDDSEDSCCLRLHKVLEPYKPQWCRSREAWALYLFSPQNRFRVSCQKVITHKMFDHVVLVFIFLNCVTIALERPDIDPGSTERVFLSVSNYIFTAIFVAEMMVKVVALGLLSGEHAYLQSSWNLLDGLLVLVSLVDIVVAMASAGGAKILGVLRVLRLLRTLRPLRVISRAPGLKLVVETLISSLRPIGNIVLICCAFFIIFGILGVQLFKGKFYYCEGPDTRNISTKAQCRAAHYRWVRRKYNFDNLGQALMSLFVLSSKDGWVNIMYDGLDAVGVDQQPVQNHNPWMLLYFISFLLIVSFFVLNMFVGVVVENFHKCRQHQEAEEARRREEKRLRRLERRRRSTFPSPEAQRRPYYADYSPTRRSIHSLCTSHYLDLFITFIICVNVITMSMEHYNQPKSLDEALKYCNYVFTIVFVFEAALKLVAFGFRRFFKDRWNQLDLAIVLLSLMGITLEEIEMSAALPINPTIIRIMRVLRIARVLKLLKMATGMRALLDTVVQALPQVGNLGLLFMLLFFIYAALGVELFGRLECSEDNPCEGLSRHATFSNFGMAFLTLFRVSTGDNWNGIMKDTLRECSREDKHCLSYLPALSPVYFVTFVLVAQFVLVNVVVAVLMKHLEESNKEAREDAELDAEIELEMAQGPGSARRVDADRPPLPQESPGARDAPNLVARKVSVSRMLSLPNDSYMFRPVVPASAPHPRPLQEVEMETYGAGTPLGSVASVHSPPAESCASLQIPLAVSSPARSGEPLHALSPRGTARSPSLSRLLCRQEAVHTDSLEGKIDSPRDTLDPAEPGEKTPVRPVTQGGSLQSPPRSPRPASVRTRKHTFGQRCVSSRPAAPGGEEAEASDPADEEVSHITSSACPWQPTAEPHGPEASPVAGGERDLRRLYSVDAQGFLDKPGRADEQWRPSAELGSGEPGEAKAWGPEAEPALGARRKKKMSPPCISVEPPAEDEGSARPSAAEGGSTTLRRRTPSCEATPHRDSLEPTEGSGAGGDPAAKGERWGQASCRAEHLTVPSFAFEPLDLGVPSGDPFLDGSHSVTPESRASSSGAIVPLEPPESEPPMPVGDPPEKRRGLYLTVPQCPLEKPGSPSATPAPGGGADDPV
T1 sequence (P10635 whole entry): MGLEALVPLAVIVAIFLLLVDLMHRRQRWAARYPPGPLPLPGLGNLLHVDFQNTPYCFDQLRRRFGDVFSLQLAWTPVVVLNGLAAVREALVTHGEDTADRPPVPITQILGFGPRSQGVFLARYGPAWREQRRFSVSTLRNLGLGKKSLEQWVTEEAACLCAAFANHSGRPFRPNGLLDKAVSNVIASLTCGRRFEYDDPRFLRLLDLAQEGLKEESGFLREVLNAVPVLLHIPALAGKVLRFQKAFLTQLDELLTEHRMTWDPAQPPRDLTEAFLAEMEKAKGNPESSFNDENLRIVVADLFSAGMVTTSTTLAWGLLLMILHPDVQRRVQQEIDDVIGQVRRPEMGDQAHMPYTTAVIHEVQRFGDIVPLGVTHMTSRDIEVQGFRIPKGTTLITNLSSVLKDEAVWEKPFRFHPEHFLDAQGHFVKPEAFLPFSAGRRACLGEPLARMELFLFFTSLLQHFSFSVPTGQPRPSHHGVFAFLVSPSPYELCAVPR

By inhibition is commonly meant the relative decrease from the control value, in per cent. For `C[C@H](C(=O)NCc1ccccc1)N1C(=O)CCC1=O` [(R)-7, (R)-N-Benzyl-2-(2,5-dioxopyrrolidin-1-yl)propanamide], on recombinant human CYP2D6, the “effect on CYP2D6” value is given as “slight activation”. Further, the “effect in the CYP2C9 assay” value on recombinant human CYP2C9 is on record as “moderate inhibitory effect”. The “% Effect, Alpha 1A (h) (Agonist effect)” value on Alpha 1A (h) (setting [1]) is -2.05% and 2.05 (100 µM) %. Besides, the inhibition at 100 µM on Alpha 1A (h) (read-out: % Inhibition, Alpha 1A (h) (Antagonist effect)) is 1.28%; at CB1 (h) (read-out: % Inhibition, CB1 (h) (Antagonist effect)) it was 5.59%; on D2L (h) (read-out: % Inhibition, D2L (h) (Antagonist effect)), 3.27%; on hCav3.2 (read-out: hCav3.2 % Inhibition, Mean) it was -0.79%; on hCav3.2 (read-out: hCav3.2 % Inhibition, n1), 5.25%; on hCav3.2 (read-out: hCav3.2 % Inhibition, n2) it was -6.84%. Also, the entries for the “% Effect, CB1 (h) (Agonist effect)” value on CB1 (h) (10 µM (as printed in the xlsx)) and on CB1 (h) (100 μM) were -6.83 (10 µM) % and -6.83%, respectively. The “% Effect, D2L (h) (Agonist effect)” value at D2L (h) (setting [1]) was 0.22% and 0.22 (100 µM) %. For the same compound, the “% Effect, sst2 (h) (Agonist effect)” value at sst2 (h) (10 μM, listed as (R)-7 [(R)-AS-1]) is 0.50% and 0.50 (10 µM) %. Further, the inhibition at 50 µM at sst2 (h) (50 μM, read-out: % Inhibition, sst2 (h) (Antagonist effect)) amounted to 5.25%.
